The values that follow come from ChEMBL document CHEMBL3393043, “Computer-aided identification of novel anticancer compounds with a possible dual HER1/HER2 inhibition mechanism” (Bioorg Med Chem Lett, 2015).

Experiment [1] is described as follows: Antiproliferative activity against human SKBR3 cells overexpressing HER2 at 10 uM by MTT assay. Type of experiment: functional. As to conditions: SK-BR-3.
Experiment [2] deals with T1, Receptor tyrosine-protein kinase erbB-2 (Homo sapiens, UniProt P04626). Put plainly: Inhibition of human full length HER2 assessed as phosphorylation state by ELISA assay.
Experiment [3] concerns the target T2, Epidermal growth factor receptor (Homo sapiens, UniProt P00533). Put plainly: Inhibition of human full length HER1 assessed as phosphorylation state by ELISA assay.
Experiment [4] in a line: Antiproliferative activity against human BT474 cells overexpressing HER2 at 10 uM by MTT assay. As to conditions: BT-474. Type of experiment: functional. A general note: Tetrazolium dyes change colour on reduction, which living cells bring about.
Experiment [5] in a line: Antiproliferative activity against human BT474 cells overexpressing HER2 by MTT assay. The experiment is classed as functional, cell-based. As to conditions: BT-474.
In experiment [6] the target is T2, Epidermal growth factor receptor. Put plainly: Inhibition of human full length HER1 assessed as phosphorylation state at 10 uM by ELISA assay.
Experiment [7] is described as follows: Antiproliferative activity against human SKBR3 cells overexpressing HER2 by MTT assay. The note with it: SK-BR-3. The experiment is classed as functional, cell-based.
The target in experiment [8] is T1, Receptor tyrosine-protein kinase erbB-2. Put plainly: Inhibition of human full length HER2 assessed as phosphorylation state at 10 uM by ELISA assay.

T2 sequence (P00533 whole entry): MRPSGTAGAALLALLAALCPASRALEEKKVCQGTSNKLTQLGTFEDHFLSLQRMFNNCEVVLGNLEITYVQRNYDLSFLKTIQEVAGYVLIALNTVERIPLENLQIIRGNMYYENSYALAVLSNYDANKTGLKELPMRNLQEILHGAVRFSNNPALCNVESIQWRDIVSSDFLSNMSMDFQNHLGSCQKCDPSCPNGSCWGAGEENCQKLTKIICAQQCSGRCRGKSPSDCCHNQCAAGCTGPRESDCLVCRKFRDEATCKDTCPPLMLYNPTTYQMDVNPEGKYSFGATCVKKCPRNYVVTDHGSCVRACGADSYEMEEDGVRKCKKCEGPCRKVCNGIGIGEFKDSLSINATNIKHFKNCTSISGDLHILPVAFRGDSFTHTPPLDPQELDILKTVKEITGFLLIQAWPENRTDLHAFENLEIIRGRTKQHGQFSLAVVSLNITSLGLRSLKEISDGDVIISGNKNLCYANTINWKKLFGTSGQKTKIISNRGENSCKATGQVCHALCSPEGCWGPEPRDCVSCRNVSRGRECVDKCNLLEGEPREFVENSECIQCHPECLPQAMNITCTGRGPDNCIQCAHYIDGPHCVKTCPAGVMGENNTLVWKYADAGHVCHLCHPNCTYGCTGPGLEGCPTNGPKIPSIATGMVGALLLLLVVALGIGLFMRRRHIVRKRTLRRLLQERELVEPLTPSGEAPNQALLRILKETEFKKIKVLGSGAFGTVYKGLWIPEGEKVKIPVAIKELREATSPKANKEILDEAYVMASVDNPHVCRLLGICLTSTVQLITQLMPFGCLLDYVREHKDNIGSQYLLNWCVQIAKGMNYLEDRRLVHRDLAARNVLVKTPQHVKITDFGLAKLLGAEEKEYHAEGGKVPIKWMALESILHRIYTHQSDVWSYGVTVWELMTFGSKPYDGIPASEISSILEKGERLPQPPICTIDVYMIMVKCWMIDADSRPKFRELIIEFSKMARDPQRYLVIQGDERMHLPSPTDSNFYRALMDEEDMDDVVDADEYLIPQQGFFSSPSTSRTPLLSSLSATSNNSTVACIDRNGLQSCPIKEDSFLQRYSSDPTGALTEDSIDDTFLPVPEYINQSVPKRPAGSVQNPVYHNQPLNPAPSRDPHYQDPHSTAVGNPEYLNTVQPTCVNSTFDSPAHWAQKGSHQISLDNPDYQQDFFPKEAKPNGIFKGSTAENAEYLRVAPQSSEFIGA
T1 sequence (P04626 whole entry): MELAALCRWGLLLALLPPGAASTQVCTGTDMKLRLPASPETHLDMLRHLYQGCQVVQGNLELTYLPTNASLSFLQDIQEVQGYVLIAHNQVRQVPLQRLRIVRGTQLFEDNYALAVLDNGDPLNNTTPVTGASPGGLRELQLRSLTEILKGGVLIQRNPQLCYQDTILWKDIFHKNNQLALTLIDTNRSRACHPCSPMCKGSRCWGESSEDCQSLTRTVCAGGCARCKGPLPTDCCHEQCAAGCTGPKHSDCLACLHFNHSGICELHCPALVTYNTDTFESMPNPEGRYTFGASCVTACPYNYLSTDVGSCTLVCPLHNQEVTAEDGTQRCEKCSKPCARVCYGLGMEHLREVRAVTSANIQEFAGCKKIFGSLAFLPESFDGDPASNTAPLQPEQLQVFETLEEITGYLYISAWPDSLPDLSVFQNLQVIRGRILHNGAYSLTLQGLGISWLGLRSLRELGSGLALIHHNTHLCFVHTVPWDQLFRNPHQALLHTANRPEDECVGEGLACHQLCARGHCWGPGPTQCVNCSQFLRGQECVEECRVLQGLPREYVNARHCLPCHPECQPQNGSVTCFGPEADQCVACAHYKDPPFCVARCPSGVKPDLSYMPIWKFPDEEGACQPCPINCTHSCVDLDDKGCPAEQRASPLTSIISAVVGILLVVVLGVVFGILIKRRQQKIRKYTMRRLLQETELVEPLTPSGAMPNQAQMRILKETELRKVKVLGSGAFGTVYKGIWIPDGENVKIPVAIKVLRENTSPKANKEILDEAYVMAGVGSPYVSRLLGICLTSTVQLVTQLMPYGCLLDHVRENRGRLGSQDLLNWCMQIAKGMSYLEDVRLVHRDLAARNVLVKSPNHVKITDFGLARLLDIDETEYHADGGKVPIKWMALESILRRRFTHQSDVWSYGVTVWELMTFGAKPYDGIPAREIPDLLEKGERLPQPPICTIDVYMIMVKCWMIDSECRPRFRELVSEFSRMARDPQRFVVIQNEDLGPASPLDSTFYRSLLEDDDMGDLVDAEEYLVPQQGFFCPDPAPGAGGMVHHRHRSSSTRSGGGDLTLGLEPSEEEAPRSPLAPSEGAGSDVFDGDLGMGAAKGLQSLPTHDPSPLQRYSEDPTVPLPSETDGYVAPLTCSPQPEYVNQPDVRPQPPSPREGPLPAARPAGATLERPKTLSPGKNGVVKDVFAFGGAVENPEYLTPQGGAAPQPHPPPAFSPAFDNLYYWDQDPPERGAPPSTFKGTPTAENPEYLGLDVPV

As usually defined, the inhibition is the share of the control response that was lost under treatment. In general, IC50 refers to the concentration that inhibits the measured activity by half. `O=C(Cc1c[nH]c2ccccc12)NNC(=S)Nc1ncccc1Br`: the inhibition at 10 µM in experiment [1] amounted to 71.5%. Besides, the IC50 in experiment [2] came out at 12400 nM; in experiment [3], 8490 nM.
As for `Cc1nnc2sc(-c3ccc(NCc4ccc(F)cc4)cc3)nn12`, in experiment [4], 10 µM produced 51% inhibition.
On the same count and under the same terms, next, `CN1C(=O)C(O)(CC(=O)c2cccc(-n3cccc3)c2)c2ccccc21` (configuration not stated): 7.25%; `COc1nc(N/N=C/c2ccc(-c3ccc(Cl)c([N+](=O)[O-])c3)o2)nc(N2CCOCC2)n1`: 39.8%.
Same read-out and setting: next, `O=C(CSc1nc(-c2cccs2)cc(C(F)(F)F)n1)Nc1ccc2c(c1)OCO2`: 47.9%; `COc1ccccc1OCC(=O)Nc1cccc(-c2nc3ccccc3c(=O)o2)c1`: 35%.
Regarding `O=[N+]([O-])c1cc(-c2ccc(/C=N/c3nc4ccccn4c3-c3ccco3)o2)ccc1Cl`, the IC50 in experiment [5] turned out to be 1100 nM; in experiment [7], 3170 nM. Moreover, the values for the inhibition in experiment [6] and in experiment [8] were 80.5% and 67.1%, respectively. At 10 µM the inhibition in experiment [4] was 77%.
For the molecule `Brc1cccc(CNc2ccc(-c3nc4ccccc4o3)cc2)c1`, the IC50 in experiment [5] is 343 nM; in experiment [7] it was 1240 nM. For the same molecule, the values for the inhibition in experiment [6] and in experiment [8] were 79.9% and 73.1%, respectively. The molecule further registered an inhibition at 10 µM in experiment [4] of 51.8%.
For `O=C(COC(=O)c1cc(O)nc2ccccc12)c1ccc2ccccc2c1`, the inhibition at 10 µM in experiment [4] turned out to be 17%.
In the case of `O=C(Cc1c[nH]c2ccccc12)NNC(=S)Nc1cccnc1`, at 10 µM the inhibition in experiment [1] was 21.2%.
The molecule `c1cncc(Nc2nnc(Cc3c[nH]c4ccccc34)o2)c1` displayed an inhibition at 10 µM in experiment [1] of 33.4%.
Consider `Nc1ncn(Cc2ccccc2)c2nc(SCCOc3ccccc3F)nc1-2`, for which the IC50 in experiment [5] worked out at 426 nM; in experiment [7] it was 2260 nM. The inhibition in experiment [6] turned out to be 81.8%; in experiment [8] it was 72.1%. This molecule showed an inhibition at 10 µM in experiment [4] of 61.4%.
For `Cc1ccc(C(=O)COc2cccc(-c3cnc4ccccc4n3)c2)cc1`, the values for the IC50 in experiment [5] and in experiment [7] were 314 nM and 3110 nM, respectively. Also, the inhibition is 83.9% in experiment [6] and 67% in experiment [8]. The same molecule registered an inhibition at 10 µM in experiment [4] of 56.2%.
In turn, `N#Cc1cnn(-c2ccccc2)c1NC(=O)CSc1nnc(-c2ccco2)n1-c1ccc(F)cc1` registered an inhibition at 10 µM in experiment [4] of 9.56%.
On to `O=C(CSc1nnc2ccc(-c3ccccc3)nn12)NC(=O)Nc1ccccc1`, for which the results for the IC50 in experiment [5] and in experiment [7] were 802 nM and 1640 nM, respectively. The inhibition is 76.1% in experiment [6] and 75.1% in experiment [8]. Testing at 10 µM in experiment [4] gave an inhibition of 52.7%.
Regarding `Brc1cccnc1Nc1nnc(Cc2c[nH]c3ccccc23)o1`, at 10 µM the inhibition in experiment [1] was 37.2%.
Regarding `c1ccc(-n2nnnc2Oc2cccc(CNCc3ccc4c(c3)OCO4)c2)cc1`, testing at 10 µM in experiment [4] gave an inhibition of 27.2%.
Still for that read-out and setting: in the case of `Cc1ccn2c(C(=O)N/N=C/c3cn(-c4ccccc4)nc3-c3cccs3)c(C)nc2c1` it was 48.2%.
As to `Cc1ccc2c(C)nc(Nc3nc(O)cc(CSc4nnnn4-c4ccccc4)n3)nc2c1`, the IC50 in experiment [5] is 755 nM; in experiment [7], 1030 nM; in experiment [2] it was 6030 nM; in experiment [3], 3920 nM. In addition, the inhibition in experiment [6] came to 83%; in experiment [8], 85.8%. In experiment [4], this molecule gave an inhibition at 10 µM of 72.7%.
